Experimental data: PubChem BioAssay AID1963870 (Molecular Pharmacology Branch, DTP, NCI, 2024)

Tested on: 292921-168-R-J2-PDC KRAS tumor spheroid viability
Experiment: Anticancer human tumor 292921-168-R-J2-PDC patient-derived pancreatic carcinoma cell line growth inhibition [KRAS2]
Details: spheroids with HUVEC and MSC; for IC50: curve of first compound; for viability, T/C: stronger effect = lower value
Procedure, shortened: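 Combination screen of spheroid viability in tumor-cell co-cultures with endothelial (HUVEC) and mesenchymal stem cell stroma. Each agent was tested in half-log dilutions, topping at clinical Cmax or at 10 microM without a known Cmax.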

[1] = second compound 0.1 µM, first compound 0.0316 µM
[2] = second compound 0.1 µM, first compound 0.1 µM
[3] = second compound 0.1 µM, first compound 0.316 µM
[4] = second compound 0.1 µM, first compound 1 µM
[5] = second compound 0.1 µM, first compound 3.16 µM
[6] = second compound 0.1 µM, first compound 10 µM
[7] = second compound 0.316 µM, first compound 0.0316 µM
[8] = second compound 0.316 µM, first compound 0.1 µM
[9] = second compound 0.316 µM, first compound 0.316 µM
[10] = second compound 0.316 µM, first compound 1 µM
[11] = second compound 0.316 µM, first compound 3.16 µM
[12] = second compound 0.316 µM, first compound 10 µM
[13] = second compound 1 µM, first compound 0.0316 µM
[14] = second compound 1 µM, first compound 0.1 µM
[15] = second compound 1 µM, first compound 0.316 µM
[16] = second compound 1 µM, first compound 1 µM
[17] = second compound 1 µM, first compound 3.16 µM
[18] = second compound 1 µM, first compound 10 µM
[19] = second compound 3.16 µM, first compound 0.0316 µM
[20] = second compound 3.16 µM, first compound 0.1 µM
[21] = second compound 3.16 µM, first compound 0.316 µM
[22] = second compound 3.16 µM, first compound 1 µM
[23] = second compound 3.16 µM, first compound 3.16 µM
[24] = second compound 3.16 µM, first compound 10 µM
[25] = second compound 10 µM, first compound 0.0316 µM
[26] = second compound 10 µM, first compound 0.1 µM
[27] = second compound 10 µM, first compound 0.316 µM
[28] = second compound 10 µM, first compound 1 µM
[29] = second compound 10 µM, first compound 3.16 µM
[30] = second compound 10 µM, first compound 10 µM
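Note: drug exposure lasted seven days after spheroids formed for three days.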
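Throughout, for viability, T/C: percent of DMSO vehicle control viability which is 100%.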

In the case of `COC(=O)c1ccc2c(C(=Nc3ccc(N(C)C(=O)CN4CCN(C)CC4)cc3)c3ccccc3)c(O)[nH]c2c1` + CC1OCC2(CCN(c3cnc(Sc4ccnc(N)c4Cl)c(N)n3)CC2)C1N, the IC50 (second compound 0.1 µM) is reported as 217 nM, the IC50 (second compound 0.316 µM) is reported as 241 nM and the IC50 (second compound 1 µM) is reported as < 31.6 nM. For the same molecule, the IC50 (second compound 3.16 µM) was 105 nM, the IC50 (second compound 10 µM) was 105 nM and the viability, T/C [1] was 71.4%. It also gave a viability, T/C [2] of 57.7%, a viability, T/C [3] of 48.3% and a viability, T/C [4] of 24.8%. It also gave a viability, T/C [5] of 12.3%, a viability, T/C [6] of 0.41% and a viability, T/C [7] of 76.8%. The viability, T/C [8] was 63.1%, the viability, T/C [9] was 46.1% and the viability, T/C [10] was 26.6%. For the same molecule, the viability, T/C [11] was 9.27%, the viability, T/C [12] was 0.34% and the viability, T/C [13] was 48%. It also gave a viability, T/C [14] of 44.3%, a viability, T/C [15] of 37.6% and a viability, T/C [16] of 19.3%. The viability, T/C [17] was 10%, the viability, T/C [18] was 0.37% and the viability, T/C [19] was 60%. It also gave a viability, T/C [20] of 51.8%, a viability, T/C [21] of 34.5% and a viability, T/C [22] of 17.9%. For the same molecule, the viability, T/C [23] was 9.11%, the viability, T/C [24] was 0.37% and the viability, T/C [25] was 58.2%. For the same molecule, the viability, T/C [26] was 50.3%, the viability, T/C [27] was 34.6% and the viability, T/C [28] was 17.4%. The viability, T/C [29] was 1.12% and the viability, T/C [30] was 0.57%.
In the case of `COc1cc2nccc(Oc3ccc(NC(=O)C4(C(=O)Nc5ccc(F)cc5)CC4)cc3)c2cc1OC` + CNCc1ccccc1-c1csc(C(C)Nc2nc(C)nc3cc(OC)c(OC)cc23)c1, the IC50 (second compound 0.1 µM) is reported as 1270 nM, the IC50 (second compound 0.316 µM) is reported as 1050 nM and the IC50 (second compound 1 µM) is reported as 401 nM. The IC50 (second compound 3.16 µM) was < 31.6 nM, the IC50 (second compound 10 µM) was < 31.6 nM and the viability, T/C [1] was 89.2%. The viability, T/C [2] was 94.5%, the viability, T/C [3] was 82.5% and the viability, T/C [4] was 57.1%. It also gave a viability, T/C [5] of 25.1%, a viability, T/C [6] of 18.1% and a viability, T/C [7] of 89.4%. For the same molecule, the viability, T/C [8] was 90.8%, the viability, T/C [9] was 73.4% and the viability, T/C [10] was 55.3%. For the same molecule, the viability, T/C [11] was 19.8%, the viability, T/C [12] was 17% and the viability, T/C [13] was 69.1%. The viability, T/C [14] was 65.5%, the viability, T/C [15] was 50.1% and the viability, T/C [16] was 40.2%. The viability, T/C [17] was 15.1%, the viability, T/C [18] was 3.12% and the viability, T/C [19] was 0.1%. It also gave a viability, T/C [20] of 0.09%, a viability, T/C [21] of 0.13% and a viability, T/C [22] of 0.06%. For the same molecule, the viability, T/C [23] was 0.05%, the viability, T/C [24] was 0.1% and the viability, T/C [25] was 0.08%. For the same molecule, the viability, T/C [26] was 0.13%, the viability, T/C [27] was 0.21% and the viability, T/C [28] was 0.08%. For the same molecule, the viability, T/C [29] was 0.42% and the viability, T/C [30] was 0.25%.
`COc1cc(Nc2ncc3c(n2)-c2ccc(Cl)cc2C(c2c(F)cccc2OC)=NC3)ccc1C(=O)O` + CNCc1ccccc1-c1csc(C(C)Nc2nc(C)nc3cc(OC)c(OC)cc23)c1 was tested, and the IC50 (second compound 0.1 µM) was < 31.6 nM, the IC50 (second compound 0.316 µM) was < 31.6 nM and the IC50 (second compound 1 µM) was < 31.6 nM. The IC50 (second compound 3.16 µM) was < 31.6 nM, the IC50 (second compound 10 µM) was < 31.6 nM and the viability, T/C [1] was 27.9%. It also gave a viability, T/C [2] of 24.7%, a viability, T/C [3] of 28.1% and a viability, T/C [4] of 25.4%. For the same molecule, the viability, T/C [5] was 22.3%, the viability, T/C [6] was 16.5% and the viability, T/C [7] was 25.8%. For the same molecule, the viability, T/C [8] was 22%, the viability, T/C [9] was 25.9% and the viability, T/C [10] was 23.9%. It also gave a viability, T/C [11] of 21.1%, a viability, T/C [12] of 14.9% and a viability, T/C [13] of 20.6%. The viability, T/C [14] was 19.1%, the viability, T/C [15] was 23.1% and the viability, T/C [16] was 19.4%. The viability, T/C [17] was 17.6%, the viability, T/C [18] was 13.4% and the viability, T/C [19] was 0.07%. The viability, T/C [20] was 0.05%, the viability, T/C [21] was 0.04% and the viability, T/C [22] was 0.05%. The viability, T/C [23] was 0.08%, the viability, T/C [24] was 0.19% and the viability, T/C [25] was 0.11%. For the same molecule, the viability, T/C [26] was 0.1%, the viability, T/C [27] was 0.13% and the viability, T/C [28] was 0.1%. For the same molecule, the viability, T/C [29] was 0.09% and the viability, T/C [30] was 0.15%.
